From the Kinase Knowledgebase extract (Sharma et al. 2016)
pIC50: −log10 of the molar value.

Columns and labels:
[1] = molecular target: PIK3CG (human) (UniProt P48736); assay: Enzyme Assay
[2] = molecular target: PIK3CA (human) (UniProt P42336); assay: Enzyme Assay
[3] = molecular target: PIK3CD (Human) (UniProt O00329); assay: Enzyme Assay
[4] = molecular target: PIK3CG (human) (UniProt P48736); assay: Cell-Based Assay; conditions: u937
[5] = molecular target: PIK3CA (human) (UniProt P42336); assay: Cell-Based Assay; conditions: rat-1
[6] = molecular target: PIK3CD (Human) (UniProt O00329); assay: Cell-Based Assay; conditions: rat-1

Chain of PIK3CD (Human) (O00329 whole entry, looked up): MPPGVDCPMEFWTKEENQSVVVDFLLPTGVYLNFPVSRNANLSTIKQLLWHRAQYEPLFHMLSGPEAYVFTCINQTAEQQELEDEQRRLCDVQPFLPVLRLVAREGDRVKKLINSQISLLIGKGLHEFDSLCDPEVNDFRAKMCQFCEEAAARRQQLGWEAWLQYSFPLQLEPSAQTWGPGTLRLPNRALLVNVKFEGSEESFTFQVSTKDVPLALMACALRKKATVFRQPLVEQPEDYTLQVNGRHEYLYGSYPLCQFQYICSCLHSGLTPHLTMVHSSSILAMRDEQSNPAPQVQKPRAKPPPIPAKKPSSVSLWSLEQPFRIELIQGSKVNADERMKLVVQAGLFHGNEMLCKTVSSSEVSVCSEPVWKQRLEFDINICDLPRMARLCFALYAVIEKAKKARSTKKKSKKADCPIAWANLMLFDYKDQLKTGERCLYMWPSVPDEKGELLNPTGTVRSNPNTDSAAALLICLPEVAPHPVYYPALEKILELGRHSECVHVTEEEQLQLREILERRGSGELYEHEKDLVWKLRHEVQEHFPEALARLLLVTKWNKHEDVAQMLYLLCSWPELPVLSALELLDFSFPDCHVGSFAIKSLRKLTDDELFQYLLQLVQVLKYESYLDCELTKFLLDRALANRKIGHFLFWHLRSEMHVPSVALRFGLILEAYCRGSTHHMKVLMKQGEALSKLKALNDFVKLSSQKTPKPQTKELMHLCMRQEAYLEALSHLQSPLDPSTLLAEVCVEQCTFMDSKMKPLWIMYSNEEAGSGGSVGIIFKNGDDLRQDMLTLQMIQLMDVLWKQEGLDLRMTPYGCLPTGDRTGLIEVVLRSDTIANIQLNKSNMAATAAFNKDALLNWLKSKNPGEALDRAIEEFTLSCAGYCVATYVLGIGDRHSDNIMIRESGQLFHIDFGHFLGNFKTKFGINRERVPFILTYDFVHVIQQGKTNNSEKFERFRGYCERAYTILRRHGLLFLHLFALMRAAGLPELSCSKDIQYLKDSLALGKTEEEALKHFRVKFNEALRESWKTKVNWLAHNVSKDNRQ
Chain of PIK3CG (human) (P48736 whole entry, looked up): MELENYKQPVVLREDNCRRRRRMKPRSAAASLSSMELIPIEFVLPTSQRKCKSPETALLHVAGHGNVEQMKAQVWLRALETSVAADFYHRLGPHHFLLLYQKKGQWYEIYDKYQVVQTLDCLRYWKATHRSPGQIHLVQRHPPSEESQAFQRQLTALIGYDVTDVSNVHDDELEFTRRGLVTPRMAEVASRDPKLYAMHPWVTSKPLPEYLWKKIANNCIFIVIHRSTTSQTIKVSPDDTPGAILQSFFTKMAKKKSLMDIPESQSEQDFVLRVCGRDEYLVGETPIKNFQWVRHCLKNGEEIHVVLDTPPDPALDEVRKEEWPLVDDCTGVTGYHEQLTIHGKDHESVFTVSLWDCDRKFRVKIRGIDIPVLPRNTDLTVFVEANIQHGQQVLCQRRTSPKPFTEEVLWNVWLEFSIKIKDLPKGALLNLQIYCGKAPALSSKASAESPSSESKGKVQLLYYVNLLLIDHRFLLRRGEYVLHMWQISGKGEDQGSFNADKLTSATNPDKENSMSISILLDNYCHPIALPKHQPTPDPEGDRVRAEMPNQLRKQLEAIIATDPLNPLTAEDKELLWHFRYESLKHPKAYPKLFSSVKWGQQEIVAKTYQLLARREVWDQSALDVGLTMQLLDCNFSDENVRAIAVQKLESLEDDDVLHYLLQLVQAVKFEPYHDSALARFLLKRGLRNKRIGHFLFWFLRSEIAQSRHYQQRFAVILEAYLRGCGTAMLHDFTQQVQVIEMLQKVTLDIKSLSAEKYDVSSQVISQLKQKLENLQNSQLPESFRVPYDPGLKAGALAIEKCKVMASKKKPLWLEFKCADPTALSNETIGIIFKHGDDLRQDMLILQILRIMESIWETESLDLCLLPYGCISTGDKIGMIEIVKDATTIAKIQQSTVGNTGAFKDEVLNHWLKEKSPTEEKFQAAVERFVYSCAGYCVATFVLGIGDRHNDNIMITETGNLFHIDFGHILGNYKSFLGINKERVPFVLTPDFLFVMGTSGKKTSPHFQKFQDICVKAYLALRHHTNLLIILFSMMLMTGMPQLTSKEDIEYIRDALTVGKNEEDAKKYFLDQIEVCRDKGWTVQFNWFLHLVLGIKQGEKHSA
Chain of PIK3CA (human) (P42336 whole entry, looked up): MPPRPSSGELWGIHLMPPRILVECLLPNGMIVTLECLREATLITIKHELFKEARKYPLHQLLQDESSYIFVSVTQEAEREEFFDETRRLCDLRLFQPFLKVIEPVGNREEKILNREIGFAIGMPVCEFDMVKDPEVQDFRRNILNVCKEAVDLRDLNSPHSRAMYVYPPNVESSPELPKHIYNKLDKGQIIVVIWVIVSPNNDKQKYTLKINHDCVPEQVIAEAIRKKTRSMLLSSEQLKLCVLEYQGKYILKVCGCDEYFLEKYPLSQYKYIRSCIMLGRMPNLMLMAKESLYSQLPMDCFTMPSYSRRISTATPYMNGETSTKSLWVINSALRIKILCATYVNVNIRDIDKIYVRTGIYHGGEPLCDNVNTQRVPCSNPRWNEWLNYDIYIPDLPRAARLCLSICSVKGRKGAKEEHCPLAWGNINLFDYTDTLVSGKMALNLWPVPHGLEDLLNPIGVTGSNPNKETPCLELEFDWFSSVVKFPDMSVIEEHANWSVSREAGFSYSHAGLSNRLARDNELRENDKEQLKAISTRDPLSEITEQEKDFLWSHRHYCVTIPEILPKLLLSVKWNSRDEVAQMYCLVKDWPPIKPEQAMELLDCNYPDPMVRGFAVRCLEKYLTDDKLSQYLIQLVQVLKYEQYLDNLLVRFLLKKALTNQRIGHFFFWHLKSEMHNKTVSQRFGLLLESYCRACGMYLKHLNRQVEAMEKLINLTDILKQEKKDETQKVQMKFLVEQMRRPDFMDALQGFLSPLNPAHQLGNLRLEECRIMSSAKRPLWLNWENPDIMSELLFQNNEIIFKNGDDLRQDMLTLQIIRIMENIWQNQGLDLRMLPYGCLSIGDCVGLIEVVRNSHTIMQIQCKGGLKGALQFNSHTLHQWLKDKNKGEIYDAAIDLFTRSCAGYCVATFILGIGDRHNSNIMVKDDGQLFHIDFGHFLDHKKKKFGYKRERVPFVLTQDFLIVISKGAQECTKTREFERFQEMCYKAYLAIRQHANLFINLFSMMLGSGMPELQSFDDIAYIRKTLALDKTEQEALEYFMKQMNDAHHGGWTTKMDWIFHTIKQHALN

SMILES | pIC50 [1] | pIC50 [2] | pIC50 [3] | pIC50 [4] | pIC50 [5] | pIC50 [6]
Cc1nc(N)nc(N2C[C@@H](O)C[C@H]2c2nc3ccc(F)c(C)c3c(=O)n2-c2ccccc2)c1C#N | 7.62 | 6.57 | 7.85 | 7.74 | 5.96 | 8.15
N#Cc1c(N)ncnc1N1C[C@@H](F)C[C@H]1c1nc2cccc(C(F)(F)F)c2c(=O)n1-c1ccccc1 | 7.26 | 5.62 | 8.10 | 7.51 | 6.12 | 8.00
Nc1nc(N2C[C@@H](F)C[C@H]2c2nc3cccc(C(F)(F)F)c3c(=O)n2-c2ccccc2)c2nc[nH]c2n1 | 8.05 | 5.89 | 7.74 | 7.35 | 5.48 | 7.54
O=c1c2c(Cl)cccc2nc([C@@H]2CCCN2c2ncnc3scnc23)n1-c1ccccc1 | 7.09 | 5.29 | 8.40 | 6.67 | 5.33 | 7.29
Cn1cnc2c(N3CCC[C@H]3c3nc4cccc(Cl)c4c(=O)n3-c3ccccc3)nc(N)nc21 | 6.52 | 5.43 | 7.28 | 6.67 | < 5.00 | 6.96
N#Cc1c(N)ncnc1N1CCC[C@H]1c1nc2cccc(Cl)c2c(=O)n1-c1ccccc1 | 7.62 | 6.41 | > 8.52 | 7.13 | 5.76 | 8.15
Cc1nc(N)nc(N2C[C@@H](O)C[C@H]2c2nc3ccc(F)c(F)c3c(=O)n2-c2ccccc2)c1C#N | 7.01 | 6.15 | 7.37 | 7.48 | 5.15 | 7.52
N#Cc1c(N)ncnc1N1OCC[C@H]1c1nc2cccc(Cl)c2c(=O)n1-c1ccccc1 | 7.36 | 5.70 | > 8.52 | 6.84 | 5.43 | 7.85
CS(=O)(=O)N1CC[C@H](n2c([C@@H]3CCCN3c3ncnc4[nH]cnc34)nc3cccc(Cl)c3c2=O)C1 | 6.43 | < 5.00 | 6.44 | < 5.00 | < 5.00 | 6.03
Nc1nc(N2C[C@@H](F)C[C@H]2c2nc3cccc(C(F)(F)F)c3c(=O)n2-c2cccnc2)c2nc[nH]c2n1 | 7.32 | 5.36 | 7.19 | 7.12 | < 5.00 | 6.62
CS(=O)(=O)N[C@H]1C[C@@H](c2nc3cccc(Cl)c3c(=O)n2-c2ccccc2)N(c2ncnc3[nH]cnc23)C1 | 7.77 | 6.52 | 8.40 | 6.83 | < 5.00 | 7.12
N#Cc1c(N)ncnc1N1CCC[C@H]1c1nc2cccc(C(F)(F)F)c2c(=O)n1-c1cccnc1 | 6.02 | 5.57 | 7.12 | 6.03 | 5.23 | 7.01
Cc1nc(N)nc(N2C[C@@H](O)C[C@H]2c2nc3cccc(OC(F)F)c3c(=O)n2-c2ccccc2)c1C#N | 6.85 | 6.35 | 7.12 | 7.15 | 5.33 | 7.35
Cc1nc(N)nc(N2CCC[C@H]2c2nc3cccc(C(F)(F)F)c3c(=O)n2-c2cccnc2)c1C#N | 6.74 | 6.27 | 7.62 | 7.09 | 5.42 | 7.57
Nc1nc(N2CCC[C@H]2c2nc3cccc(Cl)c3c(=O)n2C2CC2)c2nc[nH]c2n1 | 6.96 | 5.44 | 7.07 | 6.05 | 5.09 | 6.46
O=c1c2c(Cl)cccc2nc([C@@H]2C[C@H](OC(F)F)CN2c2ncnc3[nH]cnc23)n1-c1ccccc1 | 7.47 | 6.21 | 8.30 | 6.93 | < 5.00 | 7.77
N#Cc1c(N)ncnc1N1C[C@@H](O)C[C@H]1c1nc2cccc(C(F)(F)F)c2c(=O)n1-c1cccnc1 | 5.89 | 5.42 | 7.08 | 6.79 | 5.41 | 7.07
Nc1nc(N2CCC[C@H]2c2nc3cccc(C(F)(F)F)c3c(=O)n2-c2cncc(F)c2)c2nc[nH]c2n1 | 6.49 | < 5.00 | 6.80 | 6.49 | < 5.00 | 6.79
Cc1nc(N)nc(N2CCC[C@H]2c2nc3cccc(C(F)(F)F)c3c(=O)n2-c2cncnc2)c1C#N | 6.64 | 5.38 | 7.00 | 6.51 | < 5.00 | 6.53
N#Cc1c(N)nc(N)nc1N1CCC[C@H]1c1nc2cccc(C(F)(F)F)c2c(=O)n1-c1ccccc1 | 7.28 | 6.54 | 7.34 | 7.46 | 5.63 | 8.22

SMILES | pIC50 [1] | pIC50 [2] | pIC50 [3] | pIC50 [4] | pIC50 [5] | pIC50 [6]
Nc1nc(N2C[C@@H](O)C[C@H]2c2nc3cccc(C(F)(F)F)c3c(=O)n2-c2ccccc2)c2ncsc2n1 | 7.43 | 5.60 | 7.57 | 7.26 | 5.27 | 7.05
O=c1c2c(C(F)(F)F)cccc2nc([C@@H]2C[C@H](F)CN2c2ncnc3[nH]cnc23)n1-c1ccccc1 | 7.17 | 5.44 | > 8.52 | 7.06 | 5.28 | 7.48
Nc1nc(N2CSC[C@H]2c2nc3cccc(Cl)c3c(=O)n2-c2ccccc2)c2nc[nH]c2n1 | 7.64 | 5.64 | 7.96 | 6.92 | 5.18 | 7.34
Nc1nc(N2CCC[C@H]2c2nc3cccc(Cl)c3c(=O)n2-c2cccnc2)c2nc[nH]c2n1 | 7.62 | 5.82 | 8.10 | 6.17 | < 5.00 | 7.11
Cc1nc(N)nc(N2C[C@@H](O)C[C@H]2c2nc3cccc(Cl)c3c(=O)n2-c2cccnc2)c1C#N | 7.07 | 6.00 | 7.92 | 7.62 | 5.20 | 8.05
Cc1nc(N)nc(N2C[C@@H](O)C[C@H]2c2nc3cccc(C(F)(F)F)c3c(=O)n2-c2cccc(F)c2)c1C#N | 7.10 | 5.77 | 7.62 | 8.00 | 5.18 | 7.80
Cc1nc(N)nc(N2CCC[C@H]2c2nc3cccc(C(F)(F)F)c3c(=O)n2-c2cncc(F)c2)c1C#N | 6.62 | 5.35 | 7.30 | 7.04 | 5.06 | 7.25
N#Cc1c(C(F)F)nc(N)nc1N1C[C@@H](O)C[C@H]1c1nc2cccc(C(F)(F)F)c2c(=O)n1-c1ccccc1 | 7.24 | < 5.00 | 6.66 | 6.73 | < 5.00 | 6.29
Cc1nc(N)nc(N2C[C@@H](O)C[C@H]2c2nc3cccc(F)c3c(=O)n2-c2ccccc2)c1C#N | 7.05 | 5.89 | 7.74 | 6.94 | 5.18 | 7.62
Cc1nc(N)nc(N2C[C@@H](F)C[C@H]2c2nc3cccc(C(F)(F)F)c3c(=O)n2-c2cccnc2)c1C#N | 7.46 | 5.89 | 7.59 | 7.28 | 5.38 | 7.64
N#Cc1c(N)ncnc1N1CSC[C@H]1c1nc2cccc(Cl)c2c(=O)n1-c1ccccc1 | 6.89 | 5.63 | 8.30 | < 5.00 | 5.09 | 7.85
Cc1nc(N)nc(N2C[C@@H](O)C[C@H]2c2nc3cccc(Cl)c3c(=O)n2-c2ccccc2)c1C#N | 7.74 | 6.44 | 7.92 | 8.30 | 5.98 | 8.40
COc1cccc2nc([C@@H]3CCCN3c3ncnc(N)c3C#N)n(-c3ccccc3)c(=O)c12 | 5.28 | < 5.00 | 7.12 | 6.42 | < 5.00 | < 5.00
Cc1nc(N)nc(N2C[C@@H](O)C[C@H]2c2nc3cccc(C(F)(F)F)c3c(=O)n2N2CCOCC2)c1C#N | 7.00 | 5.70 | 7.18 | 7.08 | 5.34 | 7.04
CS(=O)(=O)c1c(F)ccc2nc([C@@H]3CCCN3c3ncnc(N)c3C#N)n(-c3ccccc3)c(=O)c12 | 5.14 | 5.35 | 7.08 | < 5.00 | < 5.00 | 7.19
CO[C@H]1C[C@@H](c2nc3cccc(C(F)(F)F)c3c(=O)n2N2CCOCC2)N(c2ncnc(N)c2C#N)C1 | 5.72 | < 5.00 | 7.28 | 5.72 | < 5.00 | 6.93
Cc1nc(N)nc(N2CCC[C@H]2c2nc3cccc(F)c3c(=O)n2-c2ccccc2)c1C#N | 7.19 | 6.48 | 7.68 | 6.94 | 5.54 | 8.05
CO[C@H]1C[C@@H](c2nc3cccc(Cl)c3c(=O)n2-c2ccccc2)N(c2ncnc3[nH]cnc23)C1 | 7.57 | 6.00 | 7.96 | 6.45 | 5.26 | 7.37
Cc1nc(N)nc(N2CCC[C@H]2c2nc3ccc(F)c(S(C)(=O)=O)c3c(=O)n2-c2ccccc2)c1C#N | 5.96 | 5.26 | 7.42 | 5.80 | < 5.00 | 6.99
